Experiments:
Test in all cases: relative viability (nuclei count vs DMSO), 5 days (fraction); higher = more cells survive
[1] = test system: COR-L 105
Procedure, shortened: (§1)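 Lung cancer cell lines in 1536-well plates got either a single drug or a fixed anchor-drug dose together with five library-drug doses (not always all listed) in √10 steps, by pin tool, on the day after seeding. Nuclei were counted after 5 days, and relative viability is the treated-to-vehicle ratio of nuclei counts. Values are medians of duplicate plates.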

[2] = test system: NCI-H1915
Procedure, shortened: as §1

[3] = test system: NCI-H650
Procedure, shortened: as §1

[4] = test system: NCI-H2347
Procedure, shortened: as §1

[5] = test system: NCI-H522
Procedure, shortened: as §1

[6] = test system: ChaGo-K-1
Procedure, shortened: as §1

[7] = test system: LCLC-97TM1
Procedure, shortened: as §1

[8] = test system: NCI-H647
Procedure, shortened: as §1

[9] = test system: EPLC-272H
Procedure, shortened: as §1

[10] = test system: NCI-H520
Procedure, shortened: as §1

[11] = test system: NCI-H322M
Procedure, shortened: as §1

[12] = test system: NCI-H661
Procedure, shortened: as §1

Compound `COc1cc(N2CCC(C(N)=O)CC2)ccc1Nc1nc(N)c(Cl)c(Nc2ccccc2S(=O)(=O)C(C)C)n1` [HG-5-88-01] + COc1cccc2cc(-c3nc([C@H]4CC[C@H](C(=O)O)CC4)n4ncnc(N)c34)[nH]c12 [OSI-027] (partner 0.5 µM) has a relative viability ([1]; first compound 0.04 µM) of 0.616, a relative viability ([1]; first compound 0.1265 µM) of 0.776 and a relative viability ([1]; first compound 0.4 µM) of 0.531. For the same compound, the relative viability ([1]; first compound 1.265 µM) was 0.371, the relative viability ([1]; first compound 4 µM) was 0.316 and the relative viability ([2]; first compound 0.04 µM) was 0.63. The relative viability ([2]; first compound 0.1265 µM) was 0.625, the relative viability ([2]; first compound 0.4 µM) was 0.69 and the relative viability ([2]; first compound 1.265 µM) was 0.697. It also gave a relative viability ([2]; first compound 4 µM) of 0.527, a relative viability ([3]; first compound 0.04 µM) of 0.492 and a relative viability ([3]; first compound 0.1265 µM) of 0.476. The relative viability ([3]; first compound 0.4 µM) was 0.431, the relative viability ([3]; first compound 1.265 µM) was 0.443 and the relative viability ([3]; first compound 4 µM) was 0.319. It also gave a relative viability ([4]; first compound 0.04 µM) of 0.363, a relative viability ([4]; first compound 0.1265 µM) of 0.448 and a relative viability ([4]; first compound 0.4 µM) of 0.388. It also gave a relative viability ([4]; first compound 1.265 µM) of 0.25, a relative viability ([4]; first compound 4 µM) of 0.274 and a relative viability ([5]; first compound 0.04 µM) of 0.641. The relative viability ([5]; first compound 0.1265 µM) was 0.634, the relative viability ([5]; first compound 0.4 µM) was 0.66 and the relative viability ([5]; first compound 1.265 µM) was 0.579. For the same compound, the relative viability ([5]; first compound 4 µM) was 0.61, the relative viability ([6]; first compound 0.04 µM) was 0.627 and the relative viability ([6]; first compound 0.1265 µM) was 0.649. The relative viability ([6]; first compound 0.4 µM) was 0.645, the relative viability ([6]; first compound 1.265 µM) was 0.605 and the relative viability ([6]; first compound 4 µM) was 0.47. For the same compound, the relative viability ([7]; first compound 0.04 µM) was 0.445, the relative viability ([7]; first compound 0.1265 µM) was 0.521 and the relative viability ([7]; first compound 0.4 µM) was 0.238. For the same compound, the relative viability ([7]; first compound 1.265 µM) was 0.305, the relative viability ([7]; first compound 4 µM) was 0.131 and the relative viability ([8]; first compound 0.04 µM) was 0.622. It also gave a relative viability ([8]; first compound 0.1265 µM) of 0.63, a relative viability ([8]; first compound 0.4 µM) of 0.613 and a relative viability ([8]; first compound 1.265 µM) of 0.566. It also gave a relative viability ([8]; first compound 4 µM) of 0.648, a relative viability ([9]; first compound 0.04 µM) of 0.31 and a relative viability ([9]; first compound 0.1265 µM) of 0.278. The relative viability ([9]; first compound 0.4 µM) was 0.294, the relative viability ([9]; first compound 1.265 µM) was 0.242 and the relative viability ([9]; first compound 4 µM) was 0.0931. It also gave a relative viability ([10]; first compound 0.04 µM) of 0.23, a relative viability ([10]; first compound 0.1265 µM) of 0.258 and a relative viability ([10]; first compound 0.4 µM) of 0.236. The relative viability ([10]; first compound 1.265 µM) was 0.289, the relative viability ([10]; first compound 4 µM) was 0.221 and the relative viability ([11]; first compound 0.04 µM) was 0.501. For the same compound, the relative viability ([11]; first compound 0.1265 µM) was 0.481, the relative viability ([11]; first compound 0.4 µM) was 0.448 and the relative viability ([11]; first compound 4 µM) was 0.293. For the same compound, the relative viability ([12]; first compound 0.04 µM) was 0.659, the relative viability ([12]; first compound 0.1265 µM) was 0.709 and the relative viability ([12]; first compound 0.4 µM) was 0.684. For the same compound, the relative viability ([12]; first compound 1.265 µM) was 0.428.

Reference: the supplement of paper PMC10307832
